Patent US6518303B2, “2-phenylpyran-4-one derivatives” (Almirall Prodesfarma S.A., priority 1999, dated 2003)

Key:
COX-1 = molecular target: T1, COX-1 (Homo sapiens, UniProt P23219); assay: COX-1 activity in human whole blood (TXB2, calcium ionophore A23187); format: cell-based; details: 1 h at 37° C., TXB2 ELISA
T1 construct: Fresh blood from healthy volunteers; endogenous in cells; host or cells: fresh heparinized human whole blood stimulated with calcium ionophore A23187
Method: For the COX-1 activity determination, 500 μl aliquots of blood were incubated with either 5 μl vehicle (dimethylsulphoxide) or 5 μl of a test compound for 1 h at 37° C. […] Plasma was separated by centrifugation (10 min at 13000 rpm) and kept at −30° C. until TXB2 levels were measured using an enzyme immunoassay kit (ELISA). The effect of the compounds were evaluated by incubating each compound at five to six different concentrations with triplicate determinations. IC50 values were obtained by non-linear regression using InPlot, GraphPad software on an IBM computer.

COX-2 = molecular target: T2, COX-2 (Homo sapiens, UniProt P35354); assay: COX-2 activity in human whole blood (PGE2, LPS-induced); format: cell-based; details: for IC50: human whole blood, LPS 10 μg/ml 24 h at 37° C., PGE2 ELISA; for Ratio COX-1/COX-2: ratio of whole blood IC50 values
T2 construct: incubated in the presence of LPS (10 μg/ml) for 24 h at 37° C. in order to induce The COX-2 expression; endogenous in cells; host or cells: fresh heparinized human whole blood, COX-2 induced with LPS for 24 h
T2 sequence (P35354 18-604): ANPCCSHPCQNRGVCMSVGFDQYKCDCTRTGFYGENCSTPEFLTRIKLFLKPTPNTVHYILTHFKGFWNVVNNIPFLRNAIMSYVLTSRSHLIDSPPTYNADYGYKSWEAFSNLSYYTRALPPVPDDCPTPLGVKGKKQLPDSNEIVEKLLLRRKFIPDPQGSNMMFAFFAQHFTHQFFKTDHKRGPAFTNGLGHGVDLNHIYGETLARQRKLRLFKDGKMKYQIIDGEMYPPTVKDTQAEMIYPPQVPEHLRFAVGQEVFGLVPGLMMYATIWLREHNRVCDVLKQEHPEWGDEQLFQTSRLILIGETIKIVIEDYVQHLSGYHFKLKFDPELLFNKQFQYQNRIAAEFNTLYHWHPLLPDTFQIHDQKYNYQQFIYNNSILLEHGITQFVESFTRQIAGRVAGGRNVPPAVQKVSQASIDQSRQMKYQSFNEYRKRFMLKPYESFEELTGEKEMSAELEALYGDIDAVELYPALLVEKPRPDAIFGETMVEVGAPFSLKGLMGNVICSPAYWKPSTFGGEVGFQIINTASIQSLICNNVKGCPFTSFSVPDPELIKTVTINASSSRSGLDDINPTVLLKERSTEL
Method: Plasma was separated by centrifugation (10 min at 13000 rpm.) and kept at −30° C. until PGE2 levels were measured using an enzyme immunoassay kit (ELISA). The effects of inhibitors were studied by incubating each compound (5 μl aliquots) at five to six different concentrations with triplicate determinations in the presence of LPS for 24 hours. IC50 values were obtained by non-linear regression using InPlot, GraphPad software on an IBM computer.

[1] = system: adjuvant arthritis (hind paw volume) in male Wistar rats; assay: Anti-inflammatory activity (adjuvant arthritis); format: in vivo, rat; details: dose 1 mg/kg p.o. once daily for 7 days (days 14-20), measured day 21
[2] = system: intestinal ulcers and hematocrit in male Wistar rats; assay: Ulcerogenic activity; format: in vivo, rat; set-up: key to Lesion index PU (perforated ulcers) / Lesion index NPU (non-perforated ulcers): 0:no ulcers; 1:<10 ulcers; 2:10-25 ulcers; 3:>25 ulcers; details: for Lesion index NPU (non-perforated ulcers) / Lesion index PU (perforated ulcers): index 0 to 3
Method: Animals: Male Wistar rate (Interfauna, U.K., Ltd.) weighing about 150-175 g were used. Animals were maintained on a 12:12 hour light-dark cycle (lights on at 7:00 am) at room temperature (22±1° C.). Food and water were allowed ad libitum.
Procedure: The compounds were administered by the oral route once a day for 4 consecutive days. The body weight of each rat was assessed every day before drug administration. The animals were anesthesized 24 h after the last dosing and 1 ml of blood was extracted by cardiac puncture using heparin (10 U/ml) as anticoagulant. The percentage of hematocrit was measured. The intestines were removed, opened longitudinally and gently washed. The macroscopic severity of the intestinal erosions was assessed using a parametric scale, evaluating the number of the perforated and non-perforated intestinal ulcers by means of a lesion index ranging from 0 to 3 (0:no ulcers, 1:<10 ulcers, 2:10-25 ulcers to 3:>25 ulcers). No gastric ulcers are observed using this protocol.
The treatments were randomized in each experiment. The results were compared with those obtained in the vehicle-treated group using the ANOVA test.

[3] = dose 100 mg/kg oral once a day for 4 days
[4] = dose 10 mg/kg oral once a day for 4 days

T1 sequence (P23219 24-599): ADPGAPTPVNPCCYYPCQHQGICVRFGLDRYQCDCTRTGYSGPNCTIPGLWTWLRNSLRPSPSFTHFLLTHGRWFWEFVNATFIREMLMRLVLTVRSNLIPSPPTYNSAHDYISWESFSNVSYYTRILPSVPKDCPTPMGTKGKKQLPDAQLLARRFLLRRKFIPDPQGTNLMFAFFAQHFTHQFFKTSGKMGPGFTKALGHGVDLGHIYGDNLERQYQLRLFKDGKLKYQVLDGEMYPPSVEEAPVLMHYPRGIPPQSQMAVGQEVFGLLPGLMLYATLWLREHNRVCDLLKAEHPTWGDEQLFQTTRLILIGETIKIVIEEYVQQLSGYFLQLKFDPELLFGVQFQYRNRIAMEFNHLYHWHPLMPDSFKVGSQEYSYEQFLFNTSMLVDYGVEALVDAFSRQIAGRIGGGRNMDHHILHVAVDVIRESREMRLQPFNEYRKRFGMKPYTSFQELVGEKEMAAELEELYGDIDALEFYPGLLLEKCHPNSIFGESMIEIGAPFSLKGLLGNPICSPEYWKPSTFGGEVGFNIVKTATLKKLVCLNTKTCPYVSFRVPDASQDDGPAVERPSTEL

| Compound | IC50 (COX-1) | IC50 (COX-2) | Ratio COX-1/COX-2 (COX-2) | melting point | % Inhibition of inflammation (paw volume) [1] | Hematocrit [2, 3] | Lesion index NPU (non-perforated ulcers) [2, 3] | Lesion index PU (perforated ulcers) [2, 3] | Hematocrit [2, 4] | Lesion index NPU (non-perforated ulcers) [2, 4] | Lesion index PU (perforated ulcers) [2, 4] |
| --- | --- | --- | --- | --- | --- | --- | --- | --- | --- | --- | --- |
| Cc1cc(=O)c(Oc2ccc(Br)cc2)c(-c2ccc(S(C)(=O)=O)cc2)o1 [Compound 43, 3-(4-bromophenoxy)-2-(4-methanesulfonylphenyl)-6-methylpyran-4-one] | > 100 µM | 800 nM | 125 | 188 °C |  |  |  |  |  |  |  |
| Cc1cc(=O)c(-c2ccc(Br)cc2)c(-c2ccc(S(C)(=O)=O)cc2)o1 [Compound 8, 3-(4-bromophenyl)-2-(4-methanesulfonylphenyl)-6-methylpyran-4-one] | > 100 µM | 1700 nM | >58 | 198 °C |  |  |  |  |  |  |  |
| Cc1cc(=O)c(Oc2ccc(F)cc2)c(-c2ccc(S(C)(=O)=O)cc2)o1 [Compound 39, 3-(4-fluorophenoxy)-2-(4-methanesulfonylphenyl)-6-methylpyran-4-one] | > 100 µM | 960 nM | >104 | 189 °C | 75 (1) % | 43.7 ± 0.4% | 0 | 0 |  |  |  |
| Cc1cc(=O)c(-c2ccc(Cl)c(Cl)c2)c(-c2ccc(S(C)(=O)=O)cc2)o1 [Compound 22, 3-(3,4-dichlorophenyl)-2-(4-methanesulfonylphenyl)-6-methylpyran-4-one] | 37.1 µM |  |  | 156 °C | 69 (1) % | 44.4 ± 0.3% |  |  |  |  |  |
| COc1ccc2c(c1)c(CC(=O)O)c(C)n2C(=O)c1ccc(Cl)cc1 [Indomethacin, 1-(4-chlorobenzoyl)-5-methoxy-2-methylindole-3-acetic acid, reference compound] |  |  |  |  | 64 (1) % |  |  |  | 22.7 ± 1.6% | 3 (3:>25 ulcers) | 3 (3:>25 ulcers) |
| Cc1cc(=O)c(-c2ccc(Cl)cc2)c(-c2ccc(S(C)(=O)=O)cc2)o1 [Compound 5, 3-(4-chlorophenyl)-2-(4-methanesulfonylphenyl)-6-methylpyran-4-one] | > 100 µM | 2100 nM | >47 | 182 °C | 50 (1) % | 44.1 ± 0.7% | 0 | 0 |  |  |  |
| Cc1cc(=O)c(Oc2ccc(Cl)cc2)c(-c2ccc(S(C)(=O)=O)cc2)o1 [Compound 41] | > 100 µM | 350 nM | >285 |  | 71 (1) % | 43.4 ± 1.9% | 0 | 0 |  |  |  |
| CS(=O)(=O)c1ccc(-c2oc(C(F)F)cc(=O)c2-c2ccc(Cl)cc2)cc1 [Compound 67, 3-(4-chlorophenyl)-6-difluoromethyl-2-(4-methanesulfonylphenyl)pyran-4-one] | > 100 µM | 2100 nM | >47 | 168 to 170 °C |  |  |  |  |  |  |  |
| Cc1cc(=O)c(-c2ccc(F)cc2)c(-c2ccc(S(C)(=O)=O)cc2)o1 [Compound 2, 3-(4-fluorophenyl)-2-(4-methanesulfonylphenyl)-6-methylpyran-4-one] | > 100 µM | 1060 nM | >94 | 237 °C |  |  |  |  |  |  |  |
| Cc1cc(=O)c(Oc2ccc(F)cc2F)c(-c2ccc(S(C)(=O)=O)cc2)o1 [Compound 45, 3-(2,4-difluorophenoxy)-2-(4-methanesulfonylphenyl)-6-methylpyran-4-one] | 22 µM | 150 nM | 147 | 191 °C | 74 (1) % | 44.4 ± 0.9% | 0 | 0 |  |  |  |
| COc1ccc(-c2c(-c3ccc(S(C)(=O)=O)cc3)oc(C)cc2=O)cc1Cl [Compound 31] | > 100 µM | 1670 nM | >59 | 116 °C |  |  |  |  |  |  |  |
